Laboratory results: patent publication US12128098B2, “Non-specific delayed-type hypersensitivity response to treat herpes simplex virus infection” (Squarex, LLC, priority 2015, dated 2024)
Values joined by “and” are separate entries in the source; they are usually repeats but may differ in a detail not shown here. Equal values may be shown once. “Also recorded” adds a separate entry of the source. Marks after values point to notes of the source that are not given here.

Legend:
[1] = test system: HSV outbreak (cold sore on lower lip); assay: Treatment of an individual suffering from frequent and severe cold sores with topical DNCB at the site of the lesion; assay type: in vivo, human
Text: The individual treated was one of the inventors. They are a person and was […] at the time of this treatment. The subject suffered from frequent cold sores on the lower lip. The outbreaks typically lasted 7-10 days and frequently longer. The subject had suffered from frequent cold sores most of their life. During the 6 months prior to this treatment, the outbreaks had been almost continuous. After getting over one outbreak, the next outbreak would begin often within a week.
In the morning they washed it off. A mild erythema in the area of the cold sore developed over 2-3 days and lasted a further 5 days, and the cold sore resolved in about 7 days, which was a typical duration for this individual or a slightly shorter duration than normal. […] Each outbreak would begin and completely resolve in one day. […] We think this may be because the immune system was recognizing not just the DNCB but also the herpes virus antigens with this second application. With the greater inflammation, the cold sore outbreak was worse than any of the outbreaks between the first and second DNCB treatments. […] The outbreak seemed to worsen as the inflammation associated with the DTH response worsened, and only lessened when the DTH response subsided.
When the outbreak subsided, the subject went another 6 months without any outbreaks to the present time.
For several months before and for the entire time described herein after the initial DNCB treatment, the subject took no antiviral medicines.

[2] = Presensitization and dose finding with DNCB solutions on the forearm (rash / erythema, DTH response); assay type: in vivo, human; settings: for erythema on forearm: sensitized subject
Text: The subject then applied a 0.1%, 0.2%, and 0.3% solutions to separate small spots on the forearm.

[3] = test system: herpes labialis (HSV cold sore outbreaks); assay: Clinical trial: treatment of herpes labialis by squaric acid dibutyl ester, time to and proportion of cold sore outbreaks after the sensitization dose; assay type: in vivo, human; settings: for Average days to first outbreak after the sensitization dose: 120 days used if no outbreak in 120 days
Method: Thirty patients are recruited meeting the following criteria:
In a screening interview, vital signs are recorded, and information is collected on any medications the patient is currently taking, previous and current treatments for cold sores, severity and duration of cold sores.
[…] Participants are told then to wait at least 2 weeks for their first treatment.
Throughout the study, the participants are asked to maintain a subject diary, in which they record each day any symptoms they experience, including fever, swelling, pain, redness, itching, burning, the size of any lesions, and any medications taken.
Visit 2: After the 2-week period to allow development of sensitivity to SADBE, upon the beginning of his or her next outbreak (within 72 hours of the first signs of an outbreak), each participant is swabbed at the site of the herpes labialis lesion with a 0.5% solution of SADBE in DMSO.
Visit 3: Upon the next distinct outbreak at least 2 weeks after the previous treatment at visit 2, study diaries are collected. If the diary reflects redness, blistering, or burning greater than 0.5 cm beyond the clinical lesion with the previous SADBE treatment, the dosage of SADBE is decreased to 0.1%. If the diary reflects no redness or inflammation attributable to SADBE treatment, dosage is increased to 2%. Otherwise, dosage is maintained at 0.5%. Participants are swabbed at the site of the herpes labialis lesion with the SADBE solution.
If the hypersensitivity reaction produced by SADBE is excessive, patients are treated with a topical steroidal antiinflammatory cream. When a patient requests, outbreaks are treated with oral valacyclovir until the outbreak resolves.
For at least 6 months after visit 2, patients maintain their diaries. Every two months the diaries are collected.
A total of 46 patients have been enrolled in the study and have not dropped out.
The p value was calculated using the Fischer's two-tailed exact test.
The average days to the first outbreak after the sensitization dose was also measured. […] The A: placebo, 0% SADBE in DMSO.

[4] = Clinical trial of SADBE: rash (erythema) from the sensitization dose; assay type: in vivo, human; settings: pooled treatment groups B and C, 2% SADBE in DMSO
Text: Visit 1: Upon entering the study, patients are sensitized to squaric acid dibutyl ester (SADBE) by dipping a cotton-tipped swab in a 2% solution of SADBE in DMSO and swabbing a 1 cm^2 area on the forearm. Participants are told then to wait at least 2 weeks for their first treatment.

warts = settings: intralesional injection together with antigens versus antigen alone; differences not statistically significant; US 20050175634; cited from earlier work
[5] = third treatment, 0.1% DNCB solution on cold sore

## O=[N+]([O-])c1ccc(Cl)c([N+](=O)[O-])c1 [DNCB, 1-chloro-2,4-dinitrobenzene]
[1]; 4 weeks following the first 0.2% DNCB treatment of the lip lesion
  severity and duration of subsequent outbreaks: much less severe and of much shorter duration than before
[1]; after the third treatment (0.1% DNCB), to the present time
  time without any outbreak after treatment: 6 months
[1]; first application of 0.2% DNCB in acetone to cold sore on lower lip, left overnight
  erythema in the area of the cold sore: mild erythema
[1]; first application of 0.2% DNCB in acetone to the lip lesion, typical outbreaks before lasted 7-10 days
  time to resolution of the treated cold sore: about 7 days
[1]; following the second DNCB treatment at the site of a lesion
  time without any outbreak after treatment: 6 months
[1]; next 4 weeks following the first 0.2% DNCB treatment
  frequency of cold sore outbreaks after treatment: approximately weekly
[1]; outbreaks in the 4 weeks following the first 0.2% DNCB treatment
  duration of each subsequent outbreak: one
[1]; second application of 0.2% DNCB in acetone to lip lesion, about two months after the first
  inflammation and erythema with the application: more severe than they had been with the first application
[1]; second application of 0.2% DNCB to lip lesion
  duration of the treated HSV outbreak: about 7 days
[1]; [5]
  DTH response at the cold sore: moderate DTH response
  duration of the treated HSV outbreak: about 10 days
[2]; 0.1% DNCB solution
  erythema on forearm: almost no erythema
[2]; 0.2% DNCB solution
  erythema on forearm: mild but easily seen erythema
[2]; 2% DNCB solution in acetone, cotton-tipped swab, two spots on forearm, first application
  rash after presensitizing application: No rash developed
[2]; 2% DNCB solution on forearm, two weeks after the sensitizing dose
  duration of rash after second application: 3 weeks
[2]; 2% DNCB solution on forearm, two weeks after the sensitizing dose, different spots
  rash after second application: very strong but localized rash

## CCCCOc1c(OCCCC)c(=O)c1=O [SADBE, 3,4-Dibutoxy-3-cyclobutene-1,2-dione]
[3]; <120 days, group B
  Persons having an outbreak within X days after the sensitization dose: 6 (of 16)
[3]; <120 days, group C
  Persons having an outbreak within X days after the sensitization dose: 4 (of 15)
[3]; each patient, 2% SADBE applied to the inner aspect of the upper arm
  Days to first new outbreak after sensitization dose on upper arm: 37 days and 41 days and 50 days and 80 days and 91 days and >120 days (19×) and 14 days (2×) and 15 days and 18 days and 34 days
[3]; group B, n 16
  Average days to first outbreak after the sensitization dose: 88.5 days
[3]; group C, n 15
  Average days to first outbreak after the sensitization dose: 94.7 days
[3]; pooled groups B + C, n 31, p=0.041 vs placebo, t test
  Average days to first outbreak after the sensitization dose: 91.5* days
[3]; pooled groups B and C
  proportion who had a first outbreak between 30 and 120 days after receiving the sensitization dose: 5 of 26
[3]; single topical sensitization dose of 2% SADBE in DMSO on the upper arm, no application at the lesion
  effect on future HSV outbreaks: prevented future HSV outbreaks; also recorded: usually did not have a subsequent outbreak during the study time
[3]; treated patients who did not develop a visible erythema at the site of application
  median time to the next HSV outbreak versus placebo: longer median time to the next HSV outbreak than patients receiving placebo
[3]; treatment group, counting from the day of the sensitization dose
  median time to the next outbreak, outbreaks occurring in the 21 days after the sensitization dose excluded: greater than 120 days
[3]; treatment group, outbreaks in first 21 days excluded
  median time to the next outbreak counting from day 21 after the sensitization dose: greater than 99 days
[3]; within 30 days, group B (2% SADBE in DMSO sensitization, 0.5% treatment solution)
  Persons having an outbreak within X days after the sensitization dose: 2 (of 16)
[3]; within 30 days, group C (2% SADBE in DMSO sensitization, 0.2% treatment solution)
  Persons having an outbreak within X days after the sensitization dose: 3 (of 15)
[3]; within 30 days, pooled groups B + C (of 31), p vs placebo 0.26
  Persons having an outbreak within X days after the sensitization dose: 5
[3]; within 45 days, group B
  Persons having an outbreak within X days after the sensitization dose: 4 (of 16)
[3]; within 45 days, group C
  Persons having an outbreak within X days after the sensitization dose: 4 (of 15)
[3]; within 45 days, pooled groups B + C (of 31), p vs placebo 0.099
  Persons having an outbreak within X days after the sensitization dose: 8
[3]; within 60 days, group B
  Persons having an outbreak within X days after the sensitization dose: 5 (of 16)
[3]; within 60 days, group C
  Persons having an outbreak within X days after the sensitization dose: 4 (of 15)
[3]; within 60 days, pooled groups B + C (of 31), p vs placebo 0.0583
  Persons having an outbreak within X days after the sensitization dose: 9
[4]
  subjects who had a rash (erythema) from the sensitization dose: 17 of 28

## GM-CSF: cytokine used as immune response enhancer
warts
  fraction of patients responding to treatment: A larger fraction of patients receiving interferon or GM-CSF together with the antigens responded to treatment than patients receiving antigen alone

## interferon alpha
warts
  fraction of patients responding to treatment: A larger fraction of patients receiving interferon or GM-CSF together with the antigens responded to treatment than patients receiving antigen alone
